From PMC10688034 (ACS Omega, 2023)

How the values were obtained:
SARS-CoV-2 [1] = type: cell-based
SARS-CoV-2 [2] = type: cell-based; details: Calu-3, independently of the time of administration
Calu-3 cells = details: MTT
[3] = cited from earlier work
in vitro = details: African green monkey
Vero E6 cells = details: MTT, within the concentration range tested (1-80 μM)

| SMILES | LR (reduction of viral load) (SARS-CoV-2 [1]) | effect on viral replication (in words) (SARS-CoV-2 [2]) | cytotoxicity (in words) (Calu-3 cells; concentration up to 20 μM) | cell viability at the higher concentrations tested (in words) (Calu-3 cells; concentrations above 20 μM) | decomposition in cell culture medium after 6 h [3] | IC50 (in vitro) | cytotoxicity (in words) (Vero E6 cells) |
| --- | --- | --- | --- | --- | --- | --- | --- |
| C[C@H]1[C@@H](O)O[C@@H]2O[C@@]3(C)CC[C@H]4[C@H](C)CC[C@@H]1[C@@]24OO3 [DHA, dihydroartemisinin] | < 1 log | slightly interfere with viral replication | noncytotoxic | slightly altering cell viability | up to 70% | 21.6 µM | – |
| C[C@H](CCC(=O)O)[C@H]1CC[C@H]2[C@@H]3[C@@H](O)C[C@@H]4C[C@H](O)CC[C@]4(C)[C@H]3CC[C@]12C [UDCA, ursodeoxycholic acid] | < 1 log | – | – | – | – | – | noncytotoxic |
